# Data reported in US20240115488A1, “COMPOSITION FOR ORAL CAVITY CARE” (ICHIMARU PHARCOS CO., LTD., priority 2021, published 2024).
# Where two headings read alike, the source gives them in different places.
# Test system: Streptococcus mutans (NBRC13955)
# Assay type: cell-based
# Conditions: Cont. group = 100
# Description: The Streptococcus mutans was cultured in Todd-Hewitt Broth at 37° C. overnight (approximately 16 hours), and proliferated until the absorbance OD660 measured at 660 nm reached to a value in the range from 0.8 to 1.4. The Streptococcus mutans proliferated was used. Based on the absorbance measured, the Streptococcus mutans was diluted with PBS such that OD660 was 0.125, to prepare a bacterial culture to be used in the following test.
# The Codium fragile extract liquid was diluted with PBS to have a concentration of 1%, and then used in the following test.
# Each antibacterial agent used in the test was prepared to have a concentration that was two times a test concentration for mixing of the antibacterial agent with the Codium fragile extract liquid, a fraction having a predetermined molecular weight, or PBS at 1:1.
# As a CPC solution, a stock solution (2% CPC) was obtained by dissolving 0.2 g of CPC in 10 mL of ethanol solution. This solution was diluted 20-fold with purified water to prepare a 0.1% CPC (5% ethanol) solution. This solution was further diluted with a 5% ethanol solution to prepare 0.05% CPC (5% ethanol) and 0.02% CPC (5% ethanol).
# As a benzalkonium chloride solution, a stock solution (2% benzalkonium chloride) was obtained by dissolving 0.2 g of benzalkonium chloride in 10 mL of ethanol solution. This solution was diluted 5-fold with ethanol to prepare an ethanol solution of 0.4% benzalkonium chloride solution. This solution was diluted 20-fold with purified water to prepare 0.02% benzalkonium chloride (5% ethanol). This was further diluted 2-fold with a 5% ethanol solution to prepare a 0.01% benzalkonium chloride (5% ethanol) solution. This solution was diluted 2 times with a 5% ethanol solution to prepare a 0.005% benzalkonium chloride (5% ethanol) solution.
# A 20% aqueous chlorhexidine solution was used as an undiluted solution of chlorhexidine solution. The chlorhexidine solution was diluted 20-fold with ethanol and purified water to prepare a 0.1% chlorhexidine (5% ethanol) solution. This solution was further diluted 5-fold with a 5% ethanol solution to prepare a 0.02% chlorhexidine (5% ethanol) solution. This solution was further diluted 10-fold with 5% ethanol to prepare a 0.002% chlorhexidine (5% ethanol) solution.
# As an IPMP solution, a stock solution (4% IPMP) was obtained by dissolving 0.4 g of IPMP in 10 mL of ethanol solution. This solution was diluted 20-fold with ethanol and purified water to prepare a 0.2% IPMP (20% ethanol) solution. This solution was further diluted 2-fold with 20% ethanol to prepare a 0.1% IPMP (20% ethanol) solution. This solution was further diluted with 20% ethanol to prepare a 0.04% IPMP (20% ethanol) solution.
# Two or more hours after toothbrushing, saliva was collected. Stimulated saliva secreted by mastication of Parafilm was collected, and then centrifuged at 4° C. and 2,000×g for 30 minutes. A supernatant was filtered with suction through a cellulose mixed ester membrane filter (0.1 μm, 90 mm), and the saliva was diluted with PBS to have an appropriate concentration.
# 100 μL of the human saliva prepared as describe above was added to a 96-well multiplate (made from polystyrene, MultiSorp, manufactured by Thermo Fisher Scientific Inc.), the multiplate was sealed, and incubation was carried out at 37° C. for 1 hour. Each well was then cleaned twice with 300 μL of PBS, 100 μL of each of the samples described above was added, the multiplate was sealed, and incubation was carried out at 37° C. for 1 hour. Subsequently, the liquid was discarded from each of the wells, the wells were cleaned twice with 300 μL of PBS, and 100 μL of the bacterial culture prepared such that OD660 was 0.125 was added to each well.
molecule,measurement,setting,value
"CCCCCCCCCCCCCCCC[n+]1ccccc1 [CPC, cetylpyridinium chloride]",Adhesion rate,"0.010 (w/v %) CPC, relative value, FIG. 1",92.6
same,Adhesion rate,"0.025 (w/v %) CPC, relative value, FIG. 1",93.4
same,Adhesion rate,"0.050 (w/v %) CPC, relative value, FIG. 1",98.9
"Cc1cc(O)ccc1C(C)C [IPMP, 3-methyl-4-isopropyl methylphenol]",Adhesion rate,"0.020 (w/v %) IPMP, FIG. 4",91.5
same,Adhesion rate,"0.050 (w/v %) IPMP, FIG. 4",84.3
same,Adhesion rate,"0.100 (w/v %) IPMP, FIG. 4",70.7
[H]/N=C(\N/C(=N/[H])NCCCCCCNC(=N)NC(=N)Nc1ccc(Cl)cc1)Nc1ccc(Cl)cc1 [chlorhexidine],Adhesion rate,"0.010 (w/v %) chlorhexidine, FIG. 3",85.9
same,Adhesion rate,"0.025 (w/v %) chlorhexidine, FIG. 3",63.3
same,Adhesion rate,"0.050 (w/v %) chlorhexidine, FIG. 3",62.4
benzalkonium chloride,Adhesion rate,"0.010 (w/v %) benzalkonium chloride, FIG. 2",103
same,Adhesion rate,"0.025 (w/v %) benzalkonium chloride, FIG. 2",98.4
same,Adhesion rate,"0.050 (w/v %) benzalkonium chloride, FIG. 2",93.8
